According to ChEMBL document CHEMBL1141418 (J Med Chem, 2007):
Positions of bridges follow the written chain, without caps; N, C: chain ends. Non-standard residues stand in square brackets, D forms with d. Residues, ends and D or L forms follow the SMILES beside them. Orn = NCCC[C@H](N)C(=O)O; Dab = NCC[C@H](N)C(=O)O; Dap = NC[C@H](N)C(=O)O; Mpa = O=C(O)CCS

Tests used:
[1] = species on record: Rattus norvegicus; experiment: Antidiuretic activity in rat; assay type: functional, Urine
[2] = target: T1, Oxytocin receptor (Homo sapiens) (UniProt P30559); experiment: Activity at OT receptor assessed as oxytocic activity in absence of magnesium; assay type: functional; settings: filed as agonist
T1 sequence (whole entry): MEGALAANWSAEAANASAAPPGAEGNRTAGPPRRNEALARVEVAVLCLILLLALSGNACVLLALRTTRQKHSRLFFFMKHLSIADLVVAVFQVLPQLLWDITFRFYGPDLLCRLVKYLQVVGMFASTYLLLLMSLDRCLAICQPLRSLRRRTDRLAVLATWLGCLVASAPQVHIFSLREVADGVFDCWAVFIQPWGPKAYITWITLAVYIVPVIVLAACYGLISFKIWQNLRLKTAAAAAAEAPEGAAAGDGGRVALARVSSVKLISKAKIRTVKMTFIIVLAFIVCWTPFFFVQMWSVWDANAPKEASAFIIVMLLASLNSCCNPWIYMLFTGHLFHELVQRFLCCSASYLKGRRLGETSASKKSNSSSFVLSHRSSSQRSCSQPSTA

[3] = species on record: Rattus norvegicus; experiment: Vasopressor activity in rat; assay type: functional
[4] = target: Vasopressin V1a receptor (Rattus norvegicus, UniProt P30560); experiment: Displacement of [3H]AVP from vasopressin V1a receptor in rat liver membrane; assay type: cell membranes
Sequence of Vasopressin V1a receptor (P30560 whole entry): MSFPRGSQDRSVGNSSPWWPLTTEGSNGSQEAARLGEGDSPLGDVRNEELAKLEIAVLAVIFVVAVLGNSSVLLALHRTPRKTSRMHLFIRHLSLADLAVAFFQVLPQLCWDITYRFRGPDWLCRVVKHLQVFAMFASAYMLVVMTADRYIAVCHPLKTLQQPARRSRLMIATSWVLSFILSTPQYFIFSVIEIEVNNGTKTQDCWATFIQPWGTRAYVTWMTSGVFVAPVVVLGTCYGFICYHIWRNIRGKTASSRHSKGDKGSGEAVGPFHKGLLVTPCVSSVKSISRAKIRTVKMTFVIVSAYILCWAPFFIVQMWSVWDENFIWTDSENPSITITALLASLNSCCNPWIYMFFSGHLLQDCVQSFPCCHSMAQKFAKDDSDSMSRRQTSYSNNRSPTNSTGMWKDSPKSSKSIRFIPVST

[5] = target: Vasopressin V2 receptor (Rattus norvegicus, UniProt Q00788); experiment: Displacement of [3H]AVP from vasopressin V2 receptor in rat kidney membranes; assay type: cell membranes, Membrane
Sequence of Vasopressin V2 receptor (Q00788 whole entry): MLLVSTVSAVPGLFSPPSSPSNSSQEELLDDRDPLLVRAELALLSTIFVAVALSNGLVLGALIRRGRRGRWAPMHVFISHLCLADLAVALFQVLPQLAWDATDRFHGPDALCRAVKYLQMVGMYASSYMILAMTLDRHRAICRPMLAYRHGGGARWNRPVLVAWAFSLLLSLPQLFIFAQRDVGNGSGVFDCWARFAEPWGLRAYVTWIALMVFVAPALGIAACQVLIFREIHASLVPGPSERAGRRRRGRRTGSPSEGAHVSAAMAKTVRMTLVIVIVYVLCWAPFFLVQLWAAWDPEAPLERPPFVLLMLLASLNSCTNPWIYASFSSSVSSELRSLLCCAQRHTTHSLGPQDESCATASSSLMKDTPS

[6] = target: T2, Oxytocin receptor (Rattus norvegicus, UniProt P70536); experiment: Displacement of [3H]AVP from rat OT receptor expressed in CHO cells; assay type: cell-based
T2 sequence (P70536 whole entry): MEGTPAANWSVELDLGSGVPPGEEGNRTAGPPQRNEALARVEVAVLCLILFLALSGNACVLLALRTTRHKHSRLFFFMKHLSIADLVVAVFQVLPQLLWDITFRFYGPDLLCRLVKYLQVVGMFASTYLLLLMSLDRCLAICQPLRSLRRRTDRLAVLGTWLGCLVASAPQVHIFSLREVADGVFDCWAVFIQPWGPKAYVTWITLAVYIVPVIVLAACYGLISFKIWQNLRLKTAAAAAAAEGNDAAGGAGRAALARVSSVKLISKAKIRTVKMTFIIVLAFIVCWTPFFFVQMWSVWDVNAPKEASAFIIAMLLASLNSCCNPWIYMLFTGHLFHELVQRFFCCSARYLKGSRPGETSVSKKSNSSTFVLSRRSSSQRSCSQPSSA

| Structure (SMILES) | Activity [1] [U/mg] | Activity [2] [U/mg] | Activity [3] [U/mg] | Ki [4] | Activity ([3]; filed as antagonist) | Ki [5] | Ki [6] |
| --- | --- | --- | --- | --- | --- | --- | --- |
| NCCCC[C@H](NC(=O)[C@@H]1CCCN1C(=O)[C@@H]1CSSCCC(=O)N[C@@H](Cc2ccc(O)cc2)C(=O)N[C@@H](Cc2ccccc2)C(=O)N[C@@H](CCC(N)=O)C(=O)N[C@@H](CC(N)=O)C(=O)N1)C(=O)NCC(N)=O | 550 | 12 | 145 | – | – | – | – |
| NCCC[C@H](NC(=O)[C@@H]1CCCN1C(=O)[C@@H]1CSSCCC(=O)N[C@@H](Cc2ccc(O)cc2)C(=O)N[C@@H](Cc2ccccc2)C(=O)N[C@@H](CCC(N)=O)C(=O)N[C@@H](CC(N)=O)C(=O)N1)C(=O)NCC(N)=O | 486 | 15 | 355 | – | – | – | – |
| N=C(N)NCCC[C@H](NC(=O)[C@@H]1CCCN1C(=O)[C@@H]1CSSCCC(=O)N[C@H](Cc2cccnc2)C(=O)N[C@@H](Cc2ccccc2)C(=O)N[C@@H](CCC(N)=O)C(=O)N[C@@H](CC(N)=O)C(=O)N1)C(=O)NCC(N)=O | 1 | – | – | 450 nM (antagonist) | Antagonist | 69 nM (antagonist) | – |
| CC(C)C[C@@H]1NC(=O)[C@H](Cc2ccccc2)NC(=O)[C@H](Cc2ccc(O)cc2)NC(=O)CCSSC[C@@H](C(=O)N2CCC[C@H]2C(=O)N[C@@H](CCCN=C(N)N)C(=O)NCC(N)=O)NC(=O)[C@H](CC(N)=O)NC1=O ([Mpa]YFLNCPRG-NH2; disulfide 1-6) | – | – | – | 1250 nM (antagonist) | – | 3.1 nM (antagonist) | – |
| CC(C)C[C@@H]1NC(=O)[C@H](Cc2ccccc2)NC(=O)[C@H](Cc2ccc(O)cc2)NC(=O)CCSSC[C@@H](C(=O)N2CCC[C@H]2C(=O)N[C@@H](CCCNC(=N)N)C(=O)NCC(N)=O)NC(=O)[C@H](CC(N)=O)NC1=O ([Mpa]YFLNCPRG-NH2; disulfide 1-6) | 378 | 0.67 | 3.11 | – | – | – | – |
| CC(C)C[C@@H]1NC(=O)[C@H](Cc2ccccc2)NC(=O)[C@H](Cc2ccc(O)cc2)NC(=O)CCSSC[C@@H](C(=O)N2CCC[C@H]2C(=O)N[C@@H](CCN)C(=O)NCC(N)=O)NC(=O)[C@H](CC(N)=O)NC1=O ([Mpa]YFLNCP[Dab]G-NH2; disulfide 1-6) | 5.7 | 0.27 | 3.5 | 1000 nM (antagonist) | – | 210 nM (antagonist) | 41 nM (antagonist) |
| CC(C)C[C@@H]1NC(=O)[C@H](Cc2ccccc2)NC(=O)[C@H](Cc2ccc(O)cc2)NC(=O)CCSSC[C@@H](C(=O)N2CCC[C@H]2C(=O)N[C@@H](CCCN)C(=O)NCC(N)=O)NC(=O)[C@H](CC(N)=O)NC1=O ([Mpa]YFLNCP[Orn]G-NH2; disulfide 1-6) | 5.7 | – | 3.1 | 1400 nM (antagonist) | – | 425 nM (antagonist) | – |
| NCC[C@H](NC(=O)[C@@H]1CCCN1C(=O)[C@@H]1CSSCCC(=O)N[C@@H](Cc2ccc(O)cc2)C(=O)N[C@@H](Cc2ccccc2)C(=O)N[C@@H](CCC(N)=O)C(=O)N[C@@H](CC(N)=O)C(=O)N1)C(=O)NCC(N)=O ([Mpa]YFQNCP[Dab]G-NH2; disulfide 1-6) | 463 | 25 | 385 | – | – | – | – |
| NC[C@H](NC(=O)[C@@H]1CCCN1C(=O)[C@@H]1CSSCCC(=O)N[C@@H](Cc2ccc(O)cc2)C(=O)N[C@@H](Cc2ccccc2)C(=O)N[C@@H](CCC(N)=O)C(=O)N[C@@H](CC(N)=O)C(=O)N1)C(=O)NCC(N)=O ([Mpa]YFQNCP[Dap]G-NH2; disulfide 1-6) | 165 | 0.9 | 8.7 | – | – | – | – |
| N=C(N)NCCC[C@@H]1NC(=O)[C@H](Cc2ccccc2)NC(=O)[C@H](Cc2ccc(O)cc2)NC(=O)CCSSC[C@@H](C(=O)N2CCC[C@H]2C(=O)N[C@@H](CCCCN)C(=O)NCC(N)=O)NC(=O)[C@H](CC(N)=O)NC1=O ([Mpa]YFRNCPKG-NH2; disulfide 1-6) | 784 | 0.15 | 83 | 130 nM (antagonist) | – | 3.8 nM (antagonist) | 125 nM (antagonist) |
| N=C(N)NCCC[C@@H]1NC(=O)[C@H](Cc2ccccc2)NC(=O)[C@H](Cc2ccc(O)cc2)NC(=O)CCSSC[C@@H](C(=O)N2CCC[C@H]2C(=O)N[C@@H](CCCN=C(N)N)C(=O)NCC(N)=O)NC(=O)[C@H](CC(N)=O)NC1=O ([Mpa]YFRNCPRG-NH2; disulfide 1-6) | – | – | – | 12.9 nM (antagonist) | – | 0.2 nM (antagonist) | – |
| NC(=O)CNC(=O)[C@H](CCCN=C(N)N)NC(=O)[C@@H]1CCCN1C(=O)[C@@H]1CSSCCC(=O)N[C@@H](Cc2ccc(O)cc2)C(=O)N[C@@H](Cc2ccccc2)C(=O)N[C@@H](CCCN=C(N)N)C(=O)N[C@@H](CC(N)=O)C(=O)N1 ([Mpa]YFRNCPRG-NH2; disulfide 1-6) | 748.32 | – | 159.93 | – | – | – | – |
| N=C(N)NCCC[C@@H]1NC(=O)[C@H](Cc2ccccc2)NC(=O)[C@H](Cc2ccc(O)cc2)NC(=O)CCSSC[C@@H](C(=O)N2CCC[C@H]2C(=O)N[C@@H](CCN)C(=O)NCC(N)=O)NC(=O)[C@H](CC(N)=O)NC1=O ([Mpa]YFRNCP[Dab]G-NH2; disulfide 1-6) | 431 | 0.14 | 190 | 25 nM (antagonist) | – | 1.8 nM (antagonist) | 195 nM (antagonist) |
| N=C(N)NCCC[C@@H]1NC(=O)[C@H](Cc2ccccc2)NC(=O)[C@H](Cc2ccc(O)cc2)NC(=O)CCSSC[C@@H](C(=O)N2CCC[C@H]2C(=O)N[C@@H](CCCN)C(=O)NCC(N)=O)NC(=O)[C@H](CC(N)=O)NC1=O ([Mpa]YFRNCP[Orn]G-NH2; disulfide 1-6) | 823 | 0.06 | 173 | 67 nM (antagonist) | – | 3.1 nM (antagonist) | 130 nM (antagonist) |
| CC(C)[C@@H]1NC(=O)[C@H](Cc2ccccc2)NC(=O)[C@H](Cc2ccc(O)cc2)NC(=O)CCSSC[C@@H](C(=O)N2CCC[C@H]2C(=O)N[C@@H](CCCN=C(N)N)C(=O)NCC(N)=O)NC(=O)[C@H](CC(N)=O)NC1=O ([Mpa]YFVNCPRG-NH2; disulfide 1-6) | – | – | – | 60 nM (antagonist) | – | 0.3 nM (antagonist) | – |
| CC(C)[C@@H]1NC(=O)[C@H](Cc2ccccc2)NC(=O)[C@H](Cc2ccc(O)cc2)NC(=O)CCSSC[C@@H](C(=O)N2CCC[C@H]2C(=O)N[C@@H](CCCNC(=N)N)C(=O)NCC(N)=O)NC(=O)[C@H](CC(N)=O)NC1=O ([Mpa]YFVNCPRG-NH2; disulfide 1-6) | 1150 | – | 51 | – | – | – | – |
| CC(C)[C@@H]1NC(=O)[C@H](Cc2ccccc2)NC(=O)[C@H](Cc2ccc(O)cc2)NC(=O)CCSSC[C@@H](C(=O)N2CCC[C@H]2C(=O)N[C@H](CCCNC(=N)N)C(=O)NCC(N)=O)NC(=O)[C@H](CC(N)=O)NC1=O ([Mpa]YFVNCP[dR]G-NH2; disulfide 1-6) | 1230 | – | <0.01 | 316 nM (antagonist) | – | 0.26 nM (antagonist) | – |
| NCCC[C@@H]1NC(=O)[C@H](Cc2ccccc2)NC(=O)[C@H](Cc2ccc(O)cc2)NC(=O)CCSSC[C@@H](C(=O)N2CCC[C@H]2C(=O)N[C@@H](CCCN=C(N)N)C(=O)NCC(N)=O)NC(=O)[C@H](CC(N)=O)NC1=O ([Mpa]YF[Orn]NCPRG-NH2; disulfide 1-6) | 260.32 | – | 1.54 | 900 nM (antagonist) | – | 3.4 nM (antagonist) | – |
| N=C(N)NCCC[C@@H](NC(=O)[C@@H]1CCCN1C(=O)[C@@H]1CSSCCC(=O)N[C@@H](Cc2ccc(O)cc2)C(=O)N[C@@H](Cc2ccccc2)C(=O)N[C@@H](CCC(N)=O)C(=O)N[C@@H](CC(N)=O)C(=O)N1)C(=O)NCC(N)=O (stereo in doubt; form 1) [DESMOPRESSIN] | 1745 | – | 346 | – | – | 0.8 nM (antagonist) | – |
| N=C(N)NCCC[C@@H](NC(=O)[C@@H]1CCCN1C(=O)[C@@H]1CSSCCC(=O)N[C@@H](Cc2ccc(O)cc2)C(=O)N[C@@H](Cc2ccccc2)C(=O)N[C@@H](CCC(N)=O)C(=O)N[C@@H](CC(N)=O)C(=O)N1)C(=O)NCC(N)=O (stereo in doubt; form 2) [DESMOPRESSIN] | 1200 | – | 0.39 | – | – | 0.3 nM (antagonist) | – |
| NC(=O)CC[C@@H]1NC(=O)[C@H](Cc2ccccc2)NC(=O)[C@H](Cc2ccc(O)cc2)NC(=O)[C@@H](N)CSSC[C@@H](C(=O)N2CCC[C@H]2C(=O)N[C@@H](CCCN=C(N)N)C(=O)NCC(N)=O)NC(=O)[C@H](CC(N)=O)NC1=O [VASOPRESSIN] | – | – | – | – | – | – | 1.17 nM (antagonist) |
